Results: patent US10829520B2, “Beta-hairpin peptidomimetics” (POLYPHOR AG, priority 2015, dated 2020)
Where a SMILES comes first, the peptide text is derived from it. Bridges are numbered along the chain shown (N, C = ends). [ ]: non-standard residue; d: D form. NMeW = CN[C@@H](Cc1c[nH]c2ccccc12)C(=O)O; Tle = CC(C)(C)[C@H](N)C(=O)O; dDab = NCC[C@@H](N)C(=O)O; Nle = CCCC[C@H](N)C(=O)O; Orn = NCCC[C@H](N)C(=O)O; Dab = NCC[C@H](N)C(=O)O; Dap = NC[C@H](N)C(=O)O; Sar = CNCC(=O)O

Experiments:
Assay type in all cases: cell-based
[1] = tested on: human red blood cells (hRBC); test: Hemolysis of human red blood cells; details: red cells of human, 1 h, 100 μg/mL
Summary of the method: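 hRBC washed 3× PBS; 20% v/v, ~0.9×10^9 cells/mL final. Peptide 100 μg/mL, 1 h, 37° C., 300 rpm. Spin, supernatant diluted 8×, OD540. 0% = PBS + 0.001% acetic acid; 100% = 2.5% Triton X-100. % hemolysis = OD540 peptide/OD540 full lysis × 100.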

[2] = tested on: Escherichia coli ATCC 25922; details: ATCC 25922
Summary of the method: (§1)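 Minimal inhibitory concentrations were recorded in μg/mL after the strains grew 18-20 hours at 35° C with two-fold serial peptide dilutions. The medium was Mueller-Hinton II (cation-adjusted) with 0.002% Polysorbate 80, and the inoculum was about 10^6 CFU/mL.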

[3] = tested on: Acinetobacter baumannii DSM 30008; details: DSM 30008
Summary of the method: as §1

[4] = tested on: Klebsiella pneumoniae 968733; details: 968733
[5] = tested on: Pseudomonas aeruginosa ATCC 27853; details: ATCC 27853
Summary of the method: as §1

[6] = tested on: Klebsiella pneumoniae SSI #3010; details: SSI #3010
Summary of the method: as §1

[7] = tested on: Acinetobacter baumannii 872842; details: 872842
[8] = tested on: Escherichia coli 926415; details: 926415

SMILES | Hemolysis at 100 μg/mL [1] [%] | Escherichia coli ATCC 25922 MIC [2] [µg/mL] | Acinetobacter baumannii DSM 30008 MIC [3] [µg/mL] | Klebsiella pneumoniae 968733 MIC [4] [µg/mL] | Pseudomonas aeruginosa ATCC 27853 MIC [5] [µg/mL] | Klebsiella pneumoniae SSI #3010 MIC [6] [µg/mL] | Acinetobacter baumannii 872842 MIC [7] [µg/mL] | Escherichia coli 926415 MIC [8] [µg/mL]
CN[C@@H](Cc1c[nH]c2ccccc12)C(=O)N[C@H]1CSSC[C@@H](C(=O)N(C)CC(=O)N[C@@H](CCN)C(=O)N[C@H](C(=O)N[C@@H](CCN)C(=O)N[C@H]2CCNC(=O)[C@H]([C@@H](C)O)NC(=O)[C@H](CCN)NC(=O)[C@H](CCN)NC(=O)[C@H](CC(C)C)NC(=O)[C@@H](CC(C)C)NC(=O)[C@H](CCN)NC2=O)[C@@H](C)O)NC(=O)[C@H](Cc2ccc(O)cc2)NC(=O)[C@H](CN)NC(=O)[C@H](CC(C)C)NC(=O)[C@@H]2CCCN2C(=O)[C@H]2CCCN2C(=O)[C@H](Cc2ccc(O)cc2)NC(=O)[C@H](C)NC(=O)[C@H](C(C)C)NC1=O [Ex. 143] (H-[NMeW]CVAY[dP]PL[Dap]YC[Sar][Dab]T[Dab][Dab][Dab][dL]L[Dab][Dab]T; disulfide 2-11; lactam 16-C) | <1 | 0.03125 | 0.0625 | 0.125 | 0.25 | 0.125 | 0.0625 | 0.0625
CC(=O)N[C@@H](Cc1c[nH]c2ccccc12)C(=O)N[C@H]1CSSC[C@@H](C(=O)N[C@@H](CCCN)C(=O)N[C@H](C(=O)N[C@@H](CCN)C(=O)N[C@@H](CCN)C(=O)N[C@H]2CCNC(=O)[C@H]([C@@H](C)O)NC(=O)[C@H](CCN)NC(=O)[C@H](CCN)NC(=O)[C@H](CC(C)C)NC(=O)[C@@H](Cc3ccccc3)NC(=O)[C@H](CCN)NC2=O)[C@@H](C)O)NC(=O)[C@H](Cc2ccc(O)cc2)NC(=O)[C@H](CO)NC(=O)[C@H]([C@@H](C)O)NC(=O)[C@@H]2CCCN2C(=O)[C@H]2CCCN2C(=O)[C@H](Cc2ccc(O)cc2)NC(=O)[C@H](C)NC(=O)[C@H](C(C)(C)C)NC1=O [Ex. 144] (Ac-WC[Tle]AY[dP]PTSYC[Orn]T[Dab][Dab][Dab][Dab][dF]L[Dab][Dab]T; disulfide 2-11; lactam 16-C) | 4 | 0.25 | 0.125 | 1 | 0.25 | 0.25 | 0.25 | 0.5
CC(C)C[C@@H]1NC(=O)[C@@H](NC(=O)[C@@H](N)Cc2c[nH]c3ccccc23)CSSC[C@@H](C(=O)NCC(=O)N[C@@H](CCN)C(=O)N[C@H](C(=O)N[C@@H](CCN)C(=O)N[C@H]2CCNC(=O)[C@H]([C@@H](C)O)NC(=O)[C@H](CCN)NC(=O)[C@H](CCN)NC(=O)[C@H](CC(C)C)NC(=O)[C@@H](CC(C)C)NC(=O)[C@H](CCN)NC2=O)[C@@H](C)O)NC(=O)[C@H](CC(C)C)NC(=O)[C@H](CO)NC(=O)[C@H](Cc2ccc(O)cc2)NC(=O)[C@@H]2CCCN2C(=O)[C@H]2CCCN2C(=O)[C@H]([C@@H](C)O)NC(=O)[C@H](C)NC1=O [Ex. 145] (H-WCLAT[dP]PYSLCG[Dab]T[Dab][Dab][Dab][dL]L[Dab][Dab]T; disulfide 2-11; lactam 16-C) | 3 | 0.0625 | 0.03125 | 0.5 | 0.5 | 0.0625 | 0.0625 | 0.125
CC(=O)N[C@@H](Cc1c[nH]c2ccccc12)C(=O)N[C@H]1CSSC[C@@H](C(=O)N[C@@H](CCCN)C(=O)N[C@H](C(=O)N[C@@H](CCN)C(=O)N[C@@H](CCN)C(=O)N[C@H]2CCNC(=O)[C@H]([C@@H](C)O)NC(=O)[C@H](CCN)NC(=O)[C@H](CCN)NC(=O)[C@H](CC(C)C)NC(=O)[C@@H](Cc3ccccc3)NC(=O)[C@H](CCN)NC2=O)[C@@H](C)O)NC(=O)[C@H](Cc2ccc(O)cc2)NC(=O)[C@H](CC(=O)O)NC(=O)[C@H](CC(C)C)NC(=O)[C@@H]2CCCN2C(=O)[C@H]2CCCN2C(=O)[C@H](CO)NC(=O)[C@H](Cc2ccc(O)cc2)NC(=O)[C@H](C(C)(C)C)NC1=O [Ex. 146] (Ac-WC[Tle]YS[dP]PLDYC[Orn]T[Dab][Dab][Dab][Dab][dF]L[Dab][Dab]T; disulfide 2-11; lactam 16-C) | 3 | 0.25 | 0.125 | 4 | 0.5 | 0.25 | 1 | 4
CCCC[C@@H]1NC(=O)[C@@H]2CCCN2C(=O)[C@H]2CCCN2C(=O)[C@H](CO)NC(=O)[C@H](CO)NC(=O)[C@H](C(C)(C)C)NC(=O)[C@@H](NC(=O)[C@@H](N)Cc2c[nH]c3ccccc23)CSSC[C@@H](C(=O)N(C)CC(=O)N[C@@H](CCN)C(=O)N[C@H](C(=O)N[C@@H](CCN)C(=O)N[C@H]2CCNC(=O)[C@H]([C@@H](C)O)NC(=O)[C@H](CCN)NC(=O)[C@H](CCN)NC(=O)[C@H](CC(C)C)NC(=O)[C@@H](CC(C)C)NC(=O)[C@H](CCN)NC2=O)[C@@H](C)O)NC(=O)[C@H](Cc2ccc(O)cc2)NC(=O)[C@H](CN)NC1=O [Ex. 147] (H-WC[Tle]SS[dP]P[Nle][Dap]YC[Sar][Dab]T[Dab][Dab][Dab][dL]L[Dab][Dab]T; disulfide 2-11; lactam 16-C) | <1 | 0.0625 | 0.03125 | 0.5 | 1 | 0.0625 | 0.0625 | 0.0625
CC(C)C[C@@H]1NC(=O)[C@@H](CC(C)C)NC(=O)[C@H](CCN)NC(=O)[C@@H](NC(=O)[C@H](CCN)NC(=O)[C@H](CCN)NC(=O)[C@@H](CCN)NC(=O)[C@H](CCCN)NC(=O)[C@@H]2CSSC[C@H](NC(=O)[C@@H](N)Cc3c[nH]c4ccccc34)C(=O)N[C@@H](C(C)C)C(=O)N[C@@H](CO)C(=O)N[C@@H](CO)C(=O)N3CCC[C@@H]3C(=O)N3CCC[C@H]3C(=O)N[C@@H](C(C)C)C(=O)N[C@@H](CN)C(=O)N[C@@H](Cc3ccc(O)cc3)C(=O)N2)CCNC(=O)[C@H]([C@@H](C)O)NC(=O)[C@H](CCN)NC(=O)[C@H](CCN)NC1=O [Ex. 148] (H-WCVSS[dP]PV[Dap]YC[Orn][dDab][Dab][Dab][Dab][Dab][dL]L[Dab][Dab]T; disulfide 2-11; lactam 16-C) | <1 | 0.25 | 0.5 | 4 | 0.125 | 1 | 0.25 | 0.5
CC(C)C[C@@H]1NC(=O)[C@@H](CC(C)C)NC(=O)[C@H](CCN)NC(=O)[C@@H](NC(=O)[C@H](CCN)NC(=O)[C@@H](CCN)NC(=O)[C@@H](NC(=O)[C@H](CCCN)NC(=O)[C@@H]2CSSC[C@H](NC(=O)[C@@H](N)Cc3c[nH]c4ccccc34)C(=O)N[C@@H](C(C)C)C(=O)N[C@@H](CO)C(=O)N[C@@H](CO)C(=O)N3CCC[C@@H]3C(=O)N[C@@H](Cc3ccc(O)cc3)C(=O)N[C@@H](C(C)C)C(=O)N[C@@H](CN)C(=O)N[C@@H](Cc3ccc(O)cc3)C(=O)N2)[C@@H](C)O)CCNC(=O)[C@H]([C@@H](C)O)NC(=O)[C@H](CCN)NC(=O)[C@H](CCN)NC1=O [Ex. 149] (H-WCVSS[dP]YV[Dap]YC[Orn]T[dDab][Dab][Dab][Dab][dL]L[Dab][Dab]T; disulfide 2-11; lactam 16-C) | <1 | 0.5 | 0.5 | 0.5 | 0.5 | 0.25 | 0.0625 | 0.125
CCCC[C@@H]1NC(=O)[C@@H]2CCCN2C(=O)[C@H]2CCCN2C(=O)[C@H](CO)NC(=O)[C@H](CO)NC(=O)[C@H](C(C)C)NC(=O)[C@@H](NC(=O)[C@@H](N)Cc2c[nH]c3ccccc23)CSSC[C@@H](C(=O)N(C)CC(=O)N[C@@H](CCN)C(=O)N[C@H](C(=O)N[C@@H](CCN)C(=O)N[C@H]2CCNC(=O)[C@H]([C@@H](C)O)NC(=O)[C@H](CCN)NC(=O)[C@H](CCN)NC(=O)[C@H](CC(C)C)NC(=O)[C@@H](CC(C)C)NC(=O)[C@H](CCN)NC2=O)[C@@H](C)O)NC(=O)[C@H](C)NC(=O)[C@H](CN)NC1=O [Ex. 150] (H-WCVSS[dP]P[Nle][Dap]AC[Sar][Dab]T[Dab][Dab][Dab][dL]L[Dab][Dab]T; disulfide 2-11; lactam 16-C) | <1 | 0.125 | 0.25 | 8 | 1 | 0.25 | 0.25 | 0.5
